Test results reported in US20240092756A1, “METHODS AND COMPOSITION FOR KRAS MODIFICATIONS” (2692372 ONTARIO, INC., priority 2020, published 2024).

Tests used:
[1] = tested on: phospho-ERK1/2 in MIA PaCa-2 cells (express KRAS G12C); assay: ERK1/2 phosphorylation in MIA PaCa-2 cells; type: cell-based, human; parameters: key: X: KRAS G12C bound and modulated in cells
Procedure: MIA PaCa-2 cells were cultured in Dulbecco's Modified Eagle's Medium (Wisent) supplemented with 10% FBS, 2.5% horse serum, and 1% penicillin/streptomycin. Cells were seeded in 6-well plates at 500,000 cells/well and incubated at 37° C., 5% CO2 for 16 hours. Cells were treated with the indicated concentrations of compound or DMSO alone and incubated at 37° C., 5% CO2 for 6 or 24 hours. Conditioned media was discarded, and adherent cells were washed with PBS before they were scraped. Cell suspensions were centrifugated at 2,000 RPM for 5 minutes at 4° C. and supernatants were discarded. Cell pellets were resuspended with 1×RIPA buffer (Millipore) and incubated on ice for 15 minutes. Protein lysates were extracted by centrifugating at 20,000 RPM for 20 minutes at 4° C. Proteins were separated and total KRas protein levels were quantified by Simple Western Immunoassay (ProteinSimple) using the 2-40 kDa Separation Module for Jess according to the manufacturer's protocol, using a protein concentration of 0.5 μg/μl and antibodies targeting KRas (clone #4F3, Sigma) and GAPDH (clone #14C10, Cell Signaling) diluted to 1:10 and 1:1600, respectively, where the latter was used as a loading control. A 3:1 ratio of rabbit to mouse HRP-conjugated secondary antibodies was used for detection. KRas protein levels were quantified relative to GAPDH loading levels and subsequently normalized to the DMSO control. Phosphorylated ERK1/2 levels were quantified by Simple Western Immunoassay (ProteinSimple) using the Protein Normalization Assay Module for Jess according to the manufacturer's protocol using a protein concentration of 0.5 μg/μl and an antibody targeting phosphor-ERK1/2 (clone #D13.14.4E, Cell Signalling) diluted to 1:10. Phosphorylated ERK1/2 levels were normalized to the Jess Protein Normalization Reagent loading control and subsequently to the DMSO control.
MIA PaCa-2 cells were cultured in Dulbecco's Modified Eagle's Medium (Wisent) supplemented with 10% FBS, 2.5% horse serum, and 1% penicillin/streptomycin. Cells were seeded in 96-well plates at a density of 25,000 cells/well and incubated at 37° C., 5% CO2 for 24 hours. The next day, cells were starved in cell culture media containing 1% FBS only at 37° C., 5% CO2 for 16 hours. Following starvation, serially-diluted compounds or DMSO alone were added to cells and incubated at 37° C., 5% CO2 for 1 or 3 hours. Prior to cell lysis, 25 ng/ml human epidermal growth factor (hEGF) (Sigma) was added to the cells and incubated at 37° C., 5% CO2 for 10 minutes. Conditioned media was discarded, and adherent cells lysed and basal ERK1/2 phosphorylation levels were measured using the Phospho-ERK (Thr202/Tyr204) Cellular HTRF kit (Perkin Elmer) according to the manufacturer's protocol. The fluorescent signal of the acceptor antibody at a wavelength of 665 nm was normalized to that of the donor antibody at 620 nm. HTRF ratios were plotted and relative IC50 values were obtained using Prism (GraphPad).

[2] = target: KRAS G12C Lite (SEQ ID NO:3) (Homo sapiens, UniProt P01116, C118S/C51S/C80S/G12C/S136P/S39C); assay: Intact mass analysis (LC-MS) of covalent modification, KRAS G12C Lite; type: binding; parameters: key to KRAS Lite Modification: a: KRAS Lite modified; details: intact mass spectrometry; covalent modification of KRAS G12C Lite
Procedure: The covalent modification of the proteins with the compounds were evaluated using intact mass analysis by liquid chromatography-mass spectrometry instrument (LC-MS/MS).
The reaction solution (20 μL) was prepared in 96-well plate and contained the protein (2 μM), the compound (100 μM), HEPES buffer (20 mM, pH 8), 2% DMSO, 2% glycerol, and 150 mM NaCl. The reaction was allowed to proceed for 24 h at 25° C. The reaction solution (1 μL) was injected into the LC/MS/MS without any further sample preparation.
The LC-MS/MS instrument comprises of a Waters G2-XS quadrupole-time of flight (QTof) mass spectrometer and a Waters Acuity I-class Ultra-High Performance Liquid Chromatography (UPLC) system. The I-class UPLC system includes a binary solvent manager (BSM), and an Acquity sample manager (SM). The mobile phase consisted of: A) 0.1% (v/v) formic acid in MilliQ water; B) 0.1% (v/v) formic acid acetonitrile. Gradients were run over 5 min and proceeded as follows: A:B, 85:15, 0.0-0.7 min, 85:15→15:85, 0.7-1.5 min, 10:90, 1.5-4 min, 10:90→85:15, 4-4.5 min, 85:15, 4.5-5 min. The analytical column was a Waters BEH C4 column 1.7 μm (50×1 mm) column with pore sizes of 300 Å. The TOF MS data was collected in positive ion mode (m/z of 400-2000 Da) using MassLynx software (Waters).
The spectral deconvolution was performed using UNIFI software (Waters). The added mass of the protein upon covalent modification to cysteine residues were specified. Multiple modification of up to 8 cysteine was allowed. All the adducts with signal intensities of <2% of the base peak were ignored. The % modification was calculated as the adduct signal intensity over the total intensities of the protein peaks and the adducts.

KRAS G12C = KRAS G12C (Homo sapiens, UniProt P01116, G12C); assay: SOS1-catalyzed KRAS coupled nucleotide exchange assay (Alpha technology); type: biochemical; parameters: His; key: A: KRAS G12C bound and modulated; details: inhibition of SOS1 mediated KRAS nucleotide exchange
Procedure: Method I: The inhibition of the SOS1-catalyzed nucleotide exchange activity of KRAS (e.g., KRAS G12C/C118A) was measured using Alpha (Amplified Luminescent Proximity Homogeneous Assay) technology. 20 nM GDP-bound human KRAS (G12C/C118A) protein was incubated with two-fold serially-diluted test compound or DMSO for 5 minutes at ambient temperature in reaction buffer (25 mM HEPES, pH 7.4; 10 mM MgCl2; 0.01% Triton X-100). For all subsequent steps, DTT was added to the reaction buffer at a final concentration of 1 mM. Next, GTP and SOS-1 were added in DTT-reaction buffer at final concentrations of 1.25 mM or 500 nM, respectively, and incubated at RT for 30 minutes. Finally, c-RAF RBD (50 nM final), Alpha glutathione donor beads (PerkinElmer; 20 μg/mL final), and AlphaLISAnickel chelate acceptor beads (PerkinElmer; 20 μg/mL final), all diluted in DTT-reaction buffer, were added. The reaction mixture was incubated at RT for 5 min, and then the plates were read on an EnVision® Multilabel Reader using the AlphaScreen protocol. Luminescence signal was measured at 570 nm following a 180 ms excitation at 680 nm. Signal intensity corresponded with the association of c-RAF RBD with GTP-bound KRAS G12C/C118A and was normalized to DMSO control.
Method II: Inhibition of the SOS1-catalyzed nucleotide exchange activity of KRAS^G12C was measured using Alpha technology (PerkinElmer). 50 nM GDP-bound human KRAS^G12C protein was incubated with serially-diluted compound or DMSO for 2 hrs at RT in RBD-RAS binding buffer (BPSBioscience). 1 mM GTP and 500 nM SOS-1 were added to the reaction mixture and incubated at RT for 30 min. GST-tagged RBD-cRAF was then added to the reaction mixture at a final concentration of 2.5 nM and incubated at RT for 30 min. Finally, Alpha Glutathione acceptor beads and Nickel chelate donor beads (PerkinElmer) were diluted to 1:500 and 1:250, respectively, and added to the reaction mixture. The final reaction was incubated at RT for 30 min. Plates were read on a TECAN SPARK® Multiplate Reader. The luminescence signal was measured at 615 nm following excitation at 680 nm. Signal intensity was normalized to DMSO control.

SMILES	pERK - MIA PaCa-2 - (6 hours, 5 uM) [1]	KRAS Lite Modification [2]	KRAS-SOS1 Nucleotide Exchange (KRAS G12C)
COc1c(F)c(F)c(F)c(F)c1S(=O)(=O)Nc1nc(=O)n(-c2c(C)ccnc2C(C)C)c2nc(-c3c(O)cccc3F)c(F)cc12 (atropisomer, axis not shown) [Compound 9A, 2,3,4,5-tetrafluoro-N-(6-fluoro-7-(2-fluoro-6-hydroxyphenyl)-1-(2-isopropyl-4-methylpyridin-3-yl)-2-oxo-1,2-dihydropyrido[2,3-d]pyrimidin-4-yl)-6-methoxybenzenesulfonamide]	X	a	–
Cc1ccnc(C(C)C)c1-n1c(=O)nc(NS(=O)(=O)c2c(F)c(F)c(F)c(F)c2OCF)c2cc(F)c(-c3c(O)cccc3F)nc21 (atropisomer, axis not shown) [Compound 10A, 2,3,4,5-tetrafluoro-N-(6-fluoro-7-(2-fluoro-6-hydroxyphenyl)-1-(2-isopropyl-4-methylpyridin-3-yl)-2-oxo-1,2-dihydropyrido[2,3-d]pyrimidin-4-yl)-6-(fluoromethoxy)benzenesulfonamide]	X	–	A
C[S+]([O-])c1c(F)c(F)c(F)c(F)c1N1CCN(c2ncnc3c2CCN(c2cccc4cccc(Cl)c24)C3)CC1 (racemic) [Compound 43A, 7-(8-chloronaphthalen-1-yl)-4-(4-(2,3,4,5-tetrafluoro-6-(methylsulfinyl)phenyl)piperazin-1-yl)-5,6,7,8-tetrahydropyrido[3,4-d]pyrimidine]	–	a	–
C[S+]([O-])c1c(F)c(F)c(F)c(F)c1N1CC(Nc2ncnc3cc(-c4ccccc4F)c(Cl)cc23)C1 (racemic) [Compound 48A, 6-chloro-7-(2-fluorophenyl)-N-(1-(2,3,4,5-tetrafluoro-6-(methylsulfinyl)phenyl)azetidin-3-yl)quinazolin-4-amine]	X	–	A
Cc1ccnc(C(C)C)c1-n1c(=O)nc(NS(=O)(=O)c2c(F)c(F)c(F)c(F)c2F)c2cc(F)c(Cl)nc21 [Compound 4A, N-(7-chloro-6-fluoro-1-(2-isopropyl-4-methylpyridin-3-yl)-2-oxo-1,2-dihydropyrido[2,3-d]pyrimidin-4-yl)-2,3,4,5,6-pentafluorobenzenesulfonamide]	X	a	A
COc1c(F)c(F)c(F)c(F)c1S(=O)(=O)Nc1nc(=O)n(-c2c(C)ccnc2C(C)C)c2nc(Cl)c(F)cc12 [Compound 8A, N-(7-chloro-6-fluoro-1-(2-isopropyl-4-methylpyridin-3-yl)-2-oxo-1,2-dihydropyrido[2,3-d]pyrimidin-4-yl)-2,3,4,5-tetrafluoro-6-methoxybenzenesulfonamide]	–	a	–
O=S(=O)(NC1CN(c2ncnc3c2CCN(c2cccc4ccccc24)C3)C1)c1c(F)c(F)c(F)c(F)c1F [Compound 20A, 2,3,4,5,6-pentafluoro-N-(1-(7-(naphthalen-1-yl)-5,6,7,8-tetrahydropyrido[3,4-d]pyrimidin-4-yl)azetidin-3-yl)benzenesulfonamide]	X	–	A
O=S(=O)(c1c(O)c(F)c(F)c(F)c1F)N1CCN(c2ncnc3c2CCN(c2cccc4ccccc24)C3)CC1 [Compound 31A, 2,3,4,5-tetrafluoro-6-((4-(7-(naphthalen-1-yl)-5,6,7,8-tetrahydropyrido[3,4-d]pyrimidin-4-yl)piperazin-1-yl)sulfonyl)phenol]	–	a	A
O=S(=O)(NC1CN(c2ncnc3c2CCN(c2cccc4ccccc24)C3)C1)c1c(F)c(F)c(F)c(F)c1C(F)(F)F [Compound 35A, 2,3,4,5-tetrafluoro-N-(1-(7-(naphthalen-1-yl)-5,6,7,8-tetrahydropyrido[3,4-d]pyrimidin-4-yl)azetidin-3-yl)-6-(trifluoromethyl)benzenesulfonamide]	X	–	A
O=S(=O)(c1c(F)c(F)c(F)c(F)c1C(F)(F)F)N1CCN(c2ncnc3c2CCN(c2cc(O)cc4ccccc24)C3)CC1 [Compound 41A, 4-(4-(4-((2,3,4,5-tetrafluoro-6-(trifluoromethyl)phenyl)sulfonyl)piperazin-1-yl)-5,8-dihydropyrido[3,4-d]pyrimidin-7(6H)-yl)naphthalen-2-ol]	X	–	A
Cc1cccc(C)c1-c1cc2nccc(N3CCN(c4c(F)c(F)c(F)c(F)c4S(C)(=O)=O)C[C@@H]3C)c2cc1Cl [Compound 44A, (S)-6-chloro-7-(2,6-dimethylphenyl)-4-(2-methyl-4-(2,3,4,5-tetrafluoro-6-(methylsulfonyl)phenyl)piperazin-1-yl)quinoline]	X	–	A
